Measured values reported in US9951028B2, “Agricultural chemicals” (REDAG CROP PROTECTION LTD, priority 2013, dated 2018).

Tests used:
Assay type in all cases: in vivo
[1] = test system: Hordeum vulgare (Barley); assay: Herbicidal efficacy screen, corrected necrosis; conditions: Table 5
[2] = test system: Abutilon theophrasti (China Jute); assay: Herbicidal efficacy screen, corrected necrosis; conditions: after 10 days, Table 5
[3] = test system: Echinochloa crus-galli; assay: Herbicidal efficacy screen, corrected necrosis; conditions: Table 5; for control over E. crus galli: after 10 days
[4] = test system: A. theophrasti, E. crus galli, H. vulgare; assay: Herbicidal efficacy screen, summary of tables 3-5 over all target weed species; conditions: table 3
Text: Certain compounds of the invention were screened for herbicidal efficacy against target plants: Amaranthus retroflexus (redroot pigweed), Abutilon theophrasti (China Jute): Capsella bursa-pastoris, (shepherd's-purse) Echinochloa crus-galli, Hordeum vulgare (Barley),

SMILES | control over H. vulgare [1] | control of H. vulgare relative to the reference compound 48 ([1]; at low dosages) | control over A. theophrasti [2] | control over E. crus galli [3] | control of E. crus galli relative to the reference compound 48 ([3]; at low dosages) | control compared with prior art compounds 27 and 27a [4] | control over all three weed species [4]
CSc1c(C(F)(F)F)ccc(CNc2nonc2C)c1C [Compound 47, 4-Methyl-N-[[2-methyl-3-methylsulfanyl-4-(trifluoromethyl)phenyl]methyl]-1,2,5-oxadiazol-3-amine] | good control | improved control | good control | good control | improved control |  | 
CSc1c(C(F)(F)F)ccc(C(=O)Nc2nonc2C)c1C [Compound 48, 2-Methyl-N-(4-methyl-1,2,5-oxadiazol-3-yl)-3-methylsulfanyl-4-(trifluoromethyl)benzamide, reference compound] |  |  | good control | good control |  |  | 
C#CC(c1ccc(F)cc1)C(CC(=O)OCC)c1c(F)cccc1F (stereo not drawn) [Compound 37, Ethyl 3-(2,6-difluorophenyl)-4-(4-fluorophenyl)hex-5-ynoate] |  |  |  |  |  | significantly better control | excellent control
